Laboratory results: US9708321B2, “Spiro-quinazolinone derivatives and their use as positive allosteric modulators of mGluR4” (Merck Patent GmbH, priority 2013, dated 2017)
Read-outs that look alike come from different tables or passages of the source.

Biological target: T1, hmGluR4 (Homo sapiens, UniProt Q14833)
T1 construct: host or cells: HEK293T
Test: HEK-293 mGluR4 cells cAMP assay with EC20 L-Glutamate (HTRF)
Format: cell-based
Method: II. Biological Assays HEK-293 mGluR4 Cells cAMP Assay with EC20 L-Glutamate
Using mGluR4 suspension cell format, 10 μM Forskolin (final conc.) used to induce the production of cAMP.
Test the positive allosteric activity of the compounds of the invention at EC20 (2.3 μM for mGluR4 and 4.3 μM for mGluR6) L-Glutamate,
cAMP dymanic2 kit is intended for the direct quantitative determination of cAMP and its principle is based on HTRF technology.
• Cells: HEK293T mGluR4 cells from Multispan, cat# C1191a lot# C1191a-040910 • Culture Media: DMEM+GlutaMAX1+10% dialyzed FBS, 100 mM Sodium Pyruvate, 1 ug/ml puromycin. • Glutamine Starvation Media: DMEM without GlutaMax for plating the cells (glutamine starvation overnight). DMEM high Glucose, without phenol red, glutamine, or sodium pyruvate+10% dialyzed FBS, 100 mM Sodium Pyruvate, 1 ug/ml puromycin, 10 mM Hepes. • Hanks' balanced Salt Solution, HBSS from Invitrogen • Greiner 384 well white low volume high base plate (784075) • cAMP dynamic2 from Cisbio Bioassays • Glutamate: L-Glutamaic acid, monosodium salt, Monohydrate, 98%, from Sigma-Aldrich • Cell Preparation: split cells at 80%-90% confluence. The following day, rinse the cells with DMEM without GlutaMax and change to Glutamine Starvation Media. Incubate overnight. Assay: • Prepare compound plate: Perform compound serial dilution (uses Matrix 4341 plate), using the Bravo liquid handling platform protocol (compound serial dilution) which adds DMSO to columns 1-24 (except cols. 3 and 13). Serial dilute compounds located in columns 3 and 13 at a 1:3 ratio; 10 points (10 ul of 3 mM compound into 20 ul DMSO). Use the Bravo liquid handling platform to transfer 1 ul from the serial dilution plate into Matrix 4314 plate to create stamp plates. Prepare Compound Dilution Buffer: • Dilute 20 mM Forskolin (in DMSO) stock solution in HBSS buffer to make a 20 uM solution (forskolin buffer; 2× solution). To the forskolin buffer, add glutamate to a concentration of 8 uM (compound dilution buffer; 2× EC20 glutamate and forskolin). • Using a multidrop, add 50 ul/well of compound dilution buffer to columns 1-22 of the 2 ul compound stamp plate. Columns 23 and 24 receive forskolin buffer containing 400 uM glutamate (EC100 glutamate; 2× solution). Columns 1 and 2 receive compound dilution buffer containing EC20 glutamate, which is the basal control. • Add a glutamate dose response to row P of compound plate. Prepare the dose response by serial diluting glutamate at a 1:3 ratio in forskolin buffer starting at 2 mM glutamate (2×). Dilute the glutamate 9 times and transfer to compound plate. Prepare Cell Plates: • Harvest cells: Rinse cells with pre-warmed HBSS-10 mM HEPES (without Ca Mg) and dissociate the cells from the flask with versene. Centrifuge the cells, remove the supernatant and suspend in pre-warmed HBSS+10 mM Hepes. Count the cells and centrifuge. Remove the supernatant and suspend the cells in HBSS+Hepes (with Ca Mg) at a density of 400,000 cells/ml. Perform Assay: • Dispense 5 ul from the diluted compound plate into Greiner low volume cell plate using the Bravo liquid handling platform. Using a Multidrop with the small tubing cassette, dispense 5 ul of cells (2000 cells/well) onto the compounds contained in the low volume plates. Incubate the cells at 37° C., 5% CO2 for 30 minutes in the incubator. Assay for cAMP: • Prepare cAMP-d2 and anti-cAMP-Crytate according to the instructions for the two step assay (see Cisbio manual) and add 10 ul of the mixed reagent to each well of the assay plate using the Multidrop. Incubate at room temperature for 60 minutes and read on the Envision plate reader using the mGluR low volume cAMP HTRF 384 well protocol.

[1] = positive allosteric activity at EC20 L-Glutamate, 10 μM Forskolin, HEK293T mGluR4 cells, cAMP HTRF, read-out: hrmGluR4/HEK293T-hmGluR4 (EC50)

T1 sequence (Q14833 33-912): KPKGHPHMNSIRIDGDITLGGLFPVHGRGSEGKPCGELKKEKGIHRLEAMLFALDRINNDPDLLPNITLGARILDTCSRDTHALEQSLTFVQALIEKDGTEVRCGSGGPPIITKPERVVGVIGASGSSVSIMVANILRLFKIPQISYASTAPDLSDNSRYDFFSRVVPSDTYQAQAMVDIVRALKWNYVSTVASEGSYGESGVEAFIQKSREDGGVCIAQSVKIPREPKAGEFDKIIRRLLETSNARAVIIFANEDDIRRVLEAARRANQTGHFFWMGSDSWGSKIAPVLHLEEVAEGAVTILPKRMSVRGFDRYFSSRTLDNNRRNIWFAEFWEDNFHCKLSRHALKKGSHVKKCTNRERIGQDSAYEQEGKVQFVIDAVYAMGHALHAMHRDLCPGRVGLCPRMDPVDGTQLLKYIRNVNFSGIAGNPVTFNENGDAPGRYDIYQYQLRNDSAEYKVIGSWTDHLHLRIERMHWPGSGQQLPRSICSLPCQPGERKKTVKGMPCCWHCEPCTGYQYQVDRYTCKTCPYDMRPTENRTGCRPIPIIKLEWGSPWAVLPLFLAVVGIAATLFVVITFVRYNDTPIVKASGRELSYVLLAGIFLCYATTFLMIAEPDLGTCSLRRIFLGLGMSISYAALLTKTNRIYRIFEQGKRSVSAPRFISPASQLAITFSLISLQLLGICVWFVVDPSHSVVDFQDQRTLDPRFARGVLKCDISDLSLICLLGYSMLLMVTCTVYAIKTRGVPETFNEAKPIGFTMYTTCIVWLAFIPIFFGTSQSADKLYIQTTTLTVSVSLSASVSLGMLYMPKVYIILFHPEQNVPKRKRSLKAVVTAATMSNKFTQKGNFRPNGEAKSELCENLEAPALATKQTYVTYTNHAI

SMILES	EC50 [1] [µM]	EC50 [µM]
CC(C)OC(=O)c1ccc2c(c1)NC1(CCN(Cc3ccc(F)c(F)c3)CC1)N(c1ccc(OC(F)(F)F)cc1)C2=O [Compound 31, Isopropyl 1-(3,4-difluorobenzyl)-4′-oxo-3′-(4-(trifluoromethoxy)phenyl)-3′,4′-dihydro-1′H-spiro[piperidine-4,2′-quinazoline]-7′-carboxylate]	< 1	
O=C1c2ccc(Br)cc2NC2(CCN(Cc3ccccc3O)CC2)N1c1ccc(OC(F)(F)F)cc1 [Compound 49, 7′-Bromo-1-(2-hydroxybenzyl)-3′-(4-(trifluoromethoxy)phenyl)-1′H-spiro[piperidine-4,2′-quinazolin]-4′(3′H)-one]	< 1	
CSc1ccc(N2C(=O)c3ccc(Br)cc3NC23CCN(Cc2ccc(F)c(F)c2)CC3)cc1 [Compound 5, 7′-Bromo-1-(3,4-difluorobenzyl)-3′-(4-(methylthio)phenyl)-1′H-spiro[piperidine-4,2′-quinazolin]-4′(3′H)-one]	< 1	
O=C1c2ccc(Br)cc2NC2(CCN(Cc3ccncc3)CC2)N1c1ccc(OC(F)(F)F)cc1 [Compound 97, 7′-Bromo-1-(pyridin-4-ylmethyl)-3′-(4-(trifluoromethoxy)phenyl)-1′H-spiro[piperidine-4,2′-quinazolin]-4′(3′H)-one]	1 to 10	
O=C1c2ccc(Br)cc2NC2(CCN(Cc3ccc(F)c(F)c3)CC2)N1c1ccc(OC(F)(F)F)c(Cl)c1 [Compound 102, 7′-Bromo-3′-(3-chloro-4-(trifluoromethoxy)phenyl)-1-(3,4-difluorobenzyl)-1′H-spiro[piperidine-4,2′-quinazolin]-4′(3′H)-one]	1 to 10	
COc1ccc(N2C(=O)c3ccccc3NC23CN(Cc2ccccc2C(F)(F)F)C3)cc1 [Compound 81, 3′-(4-Methoxyphenyl)-1-(2-(trifluoromethyl)benzyl)-1′H-spiro[azetidine-3,2′-quinazolin]-4′(3′H)-one]	1 to 10	
Cc1ccc(CN2CCC3(CC2)Nc2cc(Br)ccc2C(=O)N3c2ccc(OC(F)(F)F)cc2)o1 [Compound 113, 7′-Bromo-1-((5-methylfuran-2-yl)methyl)-3′-(4-(trifluoromethoxy)phenyl)-1′H-spiro[piperidine-4,2′-quinazolin]-4′(3′H)-one]	1 to 10	
COc1ccc(N2C(=O)c3ccccc3NC23CCC(Nc2ccccc2)CC3)cc1 (stereo not drawn) [Compound 44, 3′-(4-Methoxyphenyl)-4-(phenylamino)-1′H-spiro[cyclohexane-1,2′-quinazolin]-4′(3′H)-one]	< 1	
CCC(c1ccccc1)N1CCC2(CC1)Nc1cc(Br)ccc1C(=O)N2c1ccc(Cl)cc1 (stereo not drawn) [Compound 61, 7′-Bromo-3′-(4-chlorophenyl)-1-(1-phenylpropyl)-1′H-spiro[piperidine-4,2′-quinazolin]-4′(3′H)-one]	< 1	
CC(c1ccccc1)N1CCC2(CC1)Nc1cc(Br)ccc1C(=O)N2c1ccc(Cl)cc1 (stereo not drawn) [Compound 26, 7′-Bromo-3′-(4-chlorophenyl)-1-(1-phenylethyl)-1′H-spiro[piperidine-4,2′-quinazolin]-4′(3′H)-one]	< 1	
COc1ccc(N2C(=O)c3cc(O)ccc3NC23CCN(Cc2ccc(F)c(F)c2)CC3)cc1 [Compound 122, 1-(3,4-Difluorobenzyl)-6′-hydroxy-3′-(4-methoxyphenyl)-1′H-spiro[piperidine-4,2′-quinazolin]-4′(3′H)-one]	1 to 10	
O=C1c2ccc(Br)cc2NC2(CCN(Cc3ccccc3OC(F)(F)F)CC2)N1c1ccc(OC(F)(F)F)cc1 [Compound 46, 7′-Bromo-1-(2-(trifluoromethoxy)benzyl)-3′-(4-(trifluoromethoxy)phenyl)-1′H-spiro[piperidine-4,2′-quinazolin]-4′(3′H)-one]	< 1	
COc1ccc(N2C(=O)c3ccccc3NC23CN(Cc2cccc(F)c2)C3)cc1 [Compound 93, 1-(3-Fluorobenzyl)-3′-(4-methoxyphenyl)-1′H-spiro[azetidine-3,2′-quinazolin]-4′(3′H)-one]	1 to 10	
O=C(OCC1CC1)c1ccc2c(c1)NC1(CCN(Cc3ccc(F)c(F)c3)CC1)N(c1ccc(OC(F)(F)F)cc1)C2=O [Compound 58, Cyclopropylmethyl 1-(3,4-difluorobenzyl)-4′-oxo-3′-(4-(trifluoromethoxy)phenyl)-3′,4′-dihydro-1′H-spiro[piperidine-4,2′-quinazoline]-7′-carboxylate]	< 1	
COc1ccc(N2C(=O)c3ccc(Br)cc3NC23CCN(Cc2ccc(F)c(F)c2)CC3)cc1 [Compound 17, 7′-Bromo-1-(3,4-difluorobenzyl)-3′-(4-methoxyphenyl)-1′H-spiro[piperidine-4,2′-quinazolin]-4′(3′H)-one]	< 1	
O=C1c2ccc(Br)cc2NC2(CCN(Cc3ccc(F)c(F)c3)CC2)N1c1ccc(OC(F)(F)F)cc1 [Compound 32, 7′-Bromo-1-(3,4-difluorobenzyl)-3′-(4-(trifluoromethoxy)phenyl)-1′H-spiro[piperidine-4,2′-quinazolin]-4′(3′H)-one]	< 1	
COc1ccc(N2C(=O)c3ccccc3NC23CN(Cc2ccccc2C)C3)cc1 [Compound 94, 3′-(4-Methoxyphenyl)-1-(2-methylbenzyl)-1′H-spiro[azetidine-3,2′-quinazolin]-4′(3′H)-one]	1 to 10	
COc1ccc(N2C(=O)c3ccccc3NC23CCN(Cc2ccccc2OC(F)(F)F)CC3)cc1 [Compound 67, 3′-(4-Methoxyphenyl)-1-(2-(trifluoromethoxy)benzyl)-1′H-spiro[piperidine-4,2′-quinazolin]-4′(3′H)-one]	1 to 10	
O=C1c2ccc(F)cc2CC2(CCN(Cc3ccc(F)c(F)c3)CC2)N1c1ccc(OC(F)(F)F)cc1 [Compound 127, 1′-(3,4-difluorobenzyl)-6-fluoro-2-(4-(trifluoromethoxy)phenyl)-2,4-dihydro-1H-spiro[isoquinoline-3,4′-piperidin]-1-one]	1 to 10	
COc1ccc(N2C(=O)c3ccc(N4CCCCC4)cc3NC23CCN(Cc2ccc(F)c(F)c2)CC3)cc1 [Compound 83, 1-(3,4-Difluorobenzyl)-3′-(4-methoxyphenyl)-7′-(piperidin-1-yl)-1′H-spiro[piperidine-4,2′-quinazolin]-4′(3′H)-one]	1 to 10	
COc1ccc(N2C(=O)c3ccccc3NC23CN(Cc2ccc(C)cc2)C3)cc1 [Compound 72, 3′-(4-Methoxyphenyl)-1-(4-methylbenzyl)-1′H-spiro[azetidine-3,2′-quinazolin]-4′(3′H)-one]	1 to 10	
CCC(c1ccccc1)N1CCC2(CC1)Nc1cc(Br)ccc1C(=O)N2c1ccc(OC(F)(F)F)cc1 (stereo not drawn) [Compound 48, 7′-Bromo-1-(1-phenylpropyl)-3′-(4-(trifluoromethoxy)phenyl)-1′H-spiro[piperidine-4,2′-quinazolin]-4′(3′H)-one]	< 1	
COc1ccc(N2C(=O)c3ccc(Br)cc3NC23CCN(Cc2ccc(F)c(F)c2)CC3)cc1F [Compound 24, 7′-Bromo-1-(3,4-difluorobenzyl)-3′-(3-fluoro-4-methoxyphenyl)-1′H-spiro[piperidine-4,2′-quinazolin]-4′(3′H)-one]		< 1
O=C1c2ccc(-c3ccco3)cc2NC2(CCN(Cc3ccc(F)c(F)c3)CC2)N1c1ccc(OC(F)(F)F)cc1 [Compound 6, 1-(3,4-Difluorobenzyl)-7′-(furan-2-yl)-3′-(4-(trifluoromethoxy)phenyl)-1′H-spiro[piperidine-4,2′-quinazolin]-4′(3′H)-one]	< 1	
